Source: publication PMC3797739, “Identification of Semicarbazones, Thiosemicarbazones and Triazine Nitriles as Inhibitors of Leishmania mexicana Cysteine Protease CPB” (PLoS ONE, 2013)

Columns and labels:
[1] = target: L. mexicana CPB2.8∆CTE (Leishmania mexicana, UniProt P36400); test: CPB2.8∆CTE fluorescence endpoint assay with Z-F-R-AMC substrate; type: biochemical
Procedure: (§1) The activities of CPB2.8∆CTE and BtCatB were measured in a homogeneous fluorescence endpoint assay using Z-F-R-AMC as substrate, modified from published methods. The fluorophore AMC (7-amino-4-methylcoumarin) is released by active cysteine protease, and can be detected at 360 nm excitation and 465 nm emission. The assay was optimized for automated high throughput screening on a Biomek FX workstation (Beckman Coulter). All assays were carried out in black 384 well plates at room temperature (22°C). Each plate contained 24 controls in the 23rd and 24th rows of the plate, including 8 positive controls and 8 blanks (without enzyme) as well as 8 inhibitor controls. E-64 was used as standard inhibitor. […] Test compounds available as 10 mM stock solutions in DMSO were diluted further in DMSO, except for the last 1:10 step, which was done in H2O to lower the DMSO concentration in the assay. Final concentrations of the test compounds from 30 µM to 0.3 nM were used. For the L. mexicana CPB2.8∆CTE assay, 5 µl test compound or 5 µl DMSO in acetate buffer (10% DMSO) was added to each well of the microtiter plate. Subsequently, 25 µl of a premix containing sodium acetate buffer (final concentration [f.c.] 100 mM), titriplex II (f.c. 1 mM) (Merck, Darmstadt, Germany), DTT (f.c. 10 mM) (Carl Roth GmbH, Karlsruhe, Germany), triton (f.c. 0.01%) (Merck, Darmstadt, Germany), BSA (f.c. 0.1 mg/ml) (PAA Laboratories GmbH, Pasching, Austria) and enzyme was added to each well, except the wells for the blanks, which include the premix without enzyme. After an incubation time of 10 min, the reaction was started by addition of substrate (20 µl Z-F-R-AMC; f.c. 20 µM). The reaction was stopped after 35 min incubation at room temperature by addition of 10 µl inhibitor E64 (f.c. 16.7 µM) and enzyme activity was measured with a SpectraFluorPlus (Tecan Inc., Durham, NC) plate reader using excitation at 360 nm with emission at 465 nm. The assay procedure for BtCatB was the same as for the CPB2.8∆CTE assay with the exceptions of the final concentration of the substrate Z-F-R-AMC (100 µM) and the stop of the assay using a stop buffer containing sodium acetate and sodium chlorine acetate (f.c. 41.7 mM each).
(§2) The percentage enzyme activity was calculated using the formula (V-B)/(C-B) x 100%, with V being the absorbance of the assay containing the test compound, B being the absorbance of the negative control (‘blank’) and C being the absorbance of the positive control. In primary screening, all compounds of the screening library were tested at 10 µM in double point measurements. Z´ factors, which describe the quality of an assay, were in the range of 0.85-0.99. The Z´ factor is defined in terms of four parameters: the means and standard deviations of both the positive (p) and negative (n) controls: Z´= 1-((3 x (STDEVp + STDEVn))/(MEANp - MEANn)).
(§3) The theoretical hit limit for a HTS primary screen can be calculated as MEAN + 3 x STDEV of inhibitions from diverse compounds. […] In our case, based on a preliminary screen of >3000 diverse compounds, the hit limit was determined between 12.8% and 22.9% inhibition. For practical reasons, screening hit limits are normally set above this limit, aiming at approximately 0.2-0.4% hits from a diverse library. Therefore, 50% inhibition at 10 µM compound concentration compared to the positive controls was considered a hit compound and were subjected to hit verification (IC50 determination from liquid compound stock) using CPB2.8∆CTE and BtCatB to get the activity profile of the compounds. Hit confirmation (IC50 determination from freshly dissolved solid compound stock) was performed for all compounds with an IC50 ≤ 30 µM on CPB2.8∆CTE. Compound concentrations used for IC50 determinations were as follows: 30 µM, 10 µM, 3 µM, 1 µM, 0.3 µM, 0.1 µM, 0.03 µM, 0.01 µM, 0.003 µM, 0.001 µM, and 0.0003 µM. […]

[2] = tested on: L. mexicana CPB2.8∆CTE; test: as above; type: biochemical, Leishmania mexicana; settings: ratio of IC50 on CPB2.8∆CTE to IC50 on BtCatB
Procedure: as §1, §2, §3

[3] = target: T1, bovine cathepsin B (BtCatB) (Bos taurus, UniProt P07688); test: BtCatB counter assay, fluorescence endpoint with Z-F-R-AMC substrate; type: biochemical; settings: mean ± SD, three independent experiments, substrate Z-F-R-AMC 100 µM
T1 construct: purchased Sigma-Aldrich Inc., St. Louis, MO, USA; host or cells: bovine spleen
Procedure: The activities of CPB2.8∆CTE and BtCatB were measured in a homogeneous fluorescence endpoint assay using Z-F-R-AMC as substrate, modified from published methods. The fluorophore AMC (7-amino-4-methylcoumarin) is released by active cysteine protease, and can be detected at 360 nm excitation and 465 nm emission. The assay was optimized for automated high throughput screening on a Biomek FX workstation (Beckman Coulter). All assays were carried out in black 384 well plates at room temperature (22°C). Each plate contained 24 controls in the 23rd and 24th rows of the plate, including 8 positive controls and 8 blanks (without enzyme) as well as 8 inhibitor controls. E-64 was used as standard inhibitor. […] Test compounds available as 10 mM stock solutions in DMSO were diluted further in DMSO, except for the last 1:10 step, which was done in H2O to lower the DMSO concentration in the assay. Final concentrations of the test compounds from 30 µM to 0.3 nM were used. For the L. mexicana CPB2.8∆CTE assay, 5 µl test compound or 5 µl DMSO in acetate buffer (10% DMSO) was added to each well of the microtiter plate. […] The reaction was stopped after 35 min incubation at room temperature by addition of 10 µl inhibitor E64 (f.c. 16.7 µM) and enzyme activity was measured with a SpectraFluorPlus (Tecan Inc., Durham, NC) plate reader using excitation at 360 nm with emission at 465 nm. […]
The percentage enzyme activity was calculated using the formula (V-B)/(C-B) x 100%, with V being the absorbance of the assay containing the test compound, B being the absorbance of the negative control (‘blank’) and C being the absorbance of the positive control. […]
The theoretical hit limit for a HTS primary screen can be calculated as MEAN + 3 x STDEV of inhibitions from diverse compounds. […]

Sequence of L. mexicana CPB2.8∆CTE (Leishmania mexicana, UniProt P36400) (P36400 126-343): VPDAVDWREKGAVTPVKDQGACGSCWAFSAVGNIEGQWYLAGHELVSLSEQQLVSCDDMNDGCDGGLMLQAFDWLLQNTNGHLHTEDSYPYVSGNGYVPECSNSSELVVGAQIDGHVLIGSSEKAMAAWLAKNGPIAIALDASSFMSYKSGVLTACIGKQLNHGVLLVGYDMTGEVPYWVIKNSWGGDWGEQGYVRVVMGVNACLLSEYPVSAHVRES

| Compound | inhibition of protease activity ([1]; final concentration 10 µM, standard inhibitor control of the CPB2.8∆CTE and BtCatB assays) | IC50 [1] | Ki [1] | selectivity ratio (CPB2.8∆CTE/BtCatB) [2] | IC50 [3] |
| --- | --- | --- | --- | --- | --- |
| CC(C)C[C@H](NC(=O)[C@H]1O[C@@H]1C(=O)O)C(=O)NCCCCNC(=N)N (relative stereo) [Compound E-64, 1-[N-[(L-3-trans-carboxyoxirane-2-carbonyl)-L-leucyl]amino]-4-guanidinobutane, reference compound] | complete inhibition |  |  |  |  |
| NC(=O)N/N=c1\oc2ccccc2cc1-c1nc2ccccc2[nH]1 [CP229988, 3-[(1H-benzimidazol-2-yl)-2H-1-benzopyran-2-ylidene]-2-carbaldehyde semicarbazone] |  | 10 ± 3 nM | 5 ± 2 nM | < 0.00033 | > 30000 nM |
| COc1ncccc1Nc1nc(C#N)nc(NC2CCCCC2)n1 [CP241026, 4-(cyclohexylamino)-6-[(2-methoxy-3-pyridinyl)amino]-1,3,5-triazine-2-carbonitrile] |  | 1100 ± 150 nM | 570 ± 80 nM |  | 13800 ± 4500 nM |
| NC(=S)NN=Cc1c(-c2ccccc2)[nH]c2ccccc12 [CP247128, 2-phenyl-1H-indole-3-carbaldehyde thiosemicarbazone] |  | 60 ± 10 nM |  |  |  |
| COc1ccc(-c2ccc(/C=N/NC(N)=S)o2)cc1 [CP247129, 5-(4-methoxy-phenyl)-2-furanyl-2-carbaldehyde thiosemicarbazone] |  | 70 ± 40 nM | 40 ± 20 nM |  | > 30000 nM |
